In patent publication US20170216235A1, “ADMINISTRATION OF ADAPALENE AND BENZOYL PEROXIDE FOR THE LONG-TERM TREATMENT OF ACNE VULGARIS” (GALDERMA RESEARCH & DEVELOPMENT, priority 2007, published 2017):
Where two headings read alike, the source gives them in different places. Each block holds one compound with its values, some of them ahead of it.

Assays:
[1] = 40° C., cited from earlier work
[2] = Retinoid degradation in the presence of BPO; assay type: physicochemical
Procedure: Another technical problem to be solved for the formulation of a composition comprising both adapalene and BPO is the chemical and physical compatibility of these compounds within the same formulation provided that common retinoids are natural oxidization sensitive, visible light and ultra violet sensitive and BPO being a strong oxidizing agent.
Indeed, BPO triggers rapidly degradation of natural oxidization sensitive retinoids: 50% of tretinoine is degraded within 2 hours and 95% is degraded within 24 hours.

Structure (SMILES): O=C(OOC(=O)c1ccccc1)c1ccccc1 [BPO, benzoyl peroxide]
BPO degradation time ([1]; in PEG 400 (0.5 mg/g)): 14 days | BPO degradation time ([1]; in ethanol): 29 days | BPO degradation time ([1]; in propylene glycol): 53 days

adapalene degradation in the composition with BPO ([2]; within 24 hours): no adapalene degradation
Structure (SMILES): COc1ccc(-c2ccc3cc(C(=O)O)ccc3c2)cc1C12CC3CC(CC(C3)C1)C2 [adapalene, 6-[3-(1-adamantyl)-4-methoxyphenyl]-2-naphthoic acid]

retinoid degraded in the presence of BPO ([2]; within 2 hours): 50% | retinoid degraded in the presence of BPO ([2]; within 24 hours): 95%
Structure (SMILES): CC1=C(/C=C/C(C)=C/C=C/C(C)=C/C(=O)O)C(C)(C)CCC1 [tretinoine]
